This series has as its system other rCYP450s. The series is described as follows: Reaction phenotyping, other rCYP450s of the panel (not given). It is filed as in vitro ADME, human. The protocol: For FFA and nFFA reaction phenotyping experiments, LC‐MS/MS experiments were performed using an API 4000 QTRAP or QTRAP 5500 mass spectrometer (SCIEX) with positive electrospray ionization. Chromatography was performed using an Atlantis dC18 analytical column (100 × 2.1 mm, 5 µm; Waters Corporation). Mobile phases were 0.2% v/v formic acid in water and 0.2% v/v formic acid in methanol. FFA and nFFA were eluted at a flow rate of 0.5 mL/min with a linear gradient of 40%−95% methanol from 0.20−2.1 min. The mass transitions monitored were 232.0>109.0 for FFA, 204.0>159.0 for nFFA, 348.0>330.0 for 1’‐hydroxymidazolam‐d4 internal standard (FFA reaction phenotyping), and 262.0>244.0 for hydroxybupropion‐d6 internal standard (nFFA reaction phenotyping). Analyst Instrument Control and Data Processing software (v. 1.6.1) was used for collecting and integrating data (SCIEX). Calibration curves ranging from 1.25 µM−0.01 µM were used to quantify nFFA. Relative quantitation was used to approximate the amount of FFA test material used.
Methods used to evaluate the role of CYP450s in the metabolism of FFA have been described.[22], [23], [24] To determine whether FFA and nFFA were substrates for specific CYP450s, either FFA (1 and 10 μM) or nFFA (0.1 and 1 μM) was incubated via a Tecan Liquid Handling System (Tecan Life Sciences, Männedorf, Switzerland) in duplicate with 25 pmol of rCYP1A2, rCYP2B6, rCYP2C8, rCYP2C9, rCYP2C19, rCYP2D6, or rCYP3A4, and incubation at 37°C. The 200‐μL incubation mixtures contained potassium phosphate buffer (50 mM, pH 7.4), MgCl2 (3 mM), and EDTA (1 mM, pH 7.4), and an NADPH‐generating system. Incubations of FFA with control bactosomes and membranes containing human NADPH‐CYP450 oxidoreductase, but not human CYP450 (reductase control), served as negative controls. FFA or nFFA was added to the incubation mixtures in water (1% v/v). […] Supernatant fractions were analyzed by LC‐MS/MS.

The structures appear in SMILES notation.

For the setting “1 μM FFA, rCYP450s other than rCYP2D6, rCYP2C19, rCYP1A2”, `CCNC(C)Cc1cccc(C(F)(F)F)c1` (racemic) [FFA, (RS)‐ethyl (α‐methyl‐3‐trifluoromethylphenethyl)amine] came in with an FFA loss of less than 10%. The substrate loss (10 μM FFA, rCYP450s other than rCYP2D6, rCYP2C19, rCYP1A2, rCYP2B6) is reported as less than 15%.

In the case of `CC(N)Cc1cccc(C(F)(F)F)c1.Cl` (stereo not drawn) [nFFA, 1‐(3‐(trifluoromethyl)phenyl)propan‐2‐amine hydrochloride], the “contribution to nFFA metabolism” value (nFFA 0.1 μM and 1 μM, enzymes other than rCYP1A2, rCYP2B6, rCYP2C19, rCYP2D6) is reported as “smaller contributions”.

Values taken from publication PMC9124820, “In vitro evaluation of fenfluramine and norfenfluramine as victims of drug interactions” (Pharmacology Research & Perspectives, 2022).
